Measurements: PubChem BioAssay (NCI)
Values joined by “and” are separate entries in the source; they are usually repeats but may differ in a detail not shown here. Equal entries are not always repeated.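 Five concentrations, 48 hours, 96-well plates. The concentration for 50% growth inhibition is given as GI50. TGI: total growth inhibition.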

Key:
Test in all cases: inhibition of tumour cell growth, NCI panel, 48 h
SK-MEL-28 melanoma = tested on: SK-MEL-28 melanoma
SK-MEL-2 melanoma = tested on: SK-MEL-2 melanoma
SNB-75 CNS = tested on: SNB-75 CNS
HCT-15 colon = tested on: HCT-15 colon
EKVX NSCLC = tested on: EKVX NSCLC
NCI-H226 lung = tested on: NCI-H226 lung
DU-145 prostate = tested on: DU-145 prostate
SN12C renal = tested on: SN12C renal

Compound | GI50 (SK-MEL-28 melanoma) | TGI (SK-MEL-28 melanoma) | GI50 (SK-MEL-2 melanoma) | TGI (SK-MEL-2 melanoma) | GI50 (SNB-75 CNS) | TGI (SNB-75 CNS) | GI50 (HCT-15 colon) | TGI (HCT-15 colon) | GI50 (EKVX NSCLC) | TGI (EKVX NSCLC) | GI50 (NCI-H226 lung) | TGI (NCI-H226 lung) | GI50 (DU-145 prostate) | TGI (DU-145 prostate) | GI50 (SN12C renal) | TGI (SN12C renal)
COC(=O)c1ccc2c(C(=Nc3ccc(N(C)C(=O)CN4CCN(C)CC4)cc3)c3ccccc3)c(O)[nH]c2c1 | 1.77 µM and 1.96 µM | 3.35 µM and 3.5 µM | 8.11 µM and 3.6 µM | 19.1 µM and 8.86 µM | 0.385 µM and 0.32 µM | 9.71 µM and 7.71 µM | 2.22 µM and 5.45 µM | > 100 µM | 10.6 µM and 49.6 µM | > 100 µM | 2.35 µM and 1.82 µM | 24.5 µM and 59.9 µM | 3.22 µM and 6.14 µM | 14.9 µM and > 100 µM | 1.23 µM and 0.959 µM | 31.9 µM and > 87.6 µM
N#Cc1ccc(/C=C/C(=O)c2ccccc2)cc1 | 15.5 µM and 5.18 µM | 28.8 µM and 14.9 µM | 18.9 µM and 18.8 µM | 39.1 µM and 37.8 µM | 14.5 µM and 13.9 µM | 27.6 µM and 27.5 µM | 7.13 µM and 3.28 µM | 18.7 µM and 13.5 µM | 16.6 µM and 13.6 µM | 34.9 µM and 27.4 µM | 27.2 µM and 15.3 µM | > 68.8 µM and 31 µM | 13.4 µM and 12.3 µM | 26.2 µM and 24.9 µM | 14.8 µM and 14.2 µM | 28.3 µM and 27.7 µM
CNCCN(C)Cc1cn[nH]c1-c1ccc(OC2CC(OCCC3CCOCC3)C2)cc1 (configuration not stated) | > 67.9 µM | > 100 µM | > 100 µM | > 100 µM | 38.2 µM | > 100 µM | > 100 µM | > 100 µM | > 77.7 µM | > 100 µM | > 100 µM | > 100 µM | > 100 µM | > 100 µM | > 100 µM | > 100 µM
Fc1ccc(C2C3CCOc4c(ccc5ccccc45)C3=NN2c2ccccc2)cc1 (configuration not stated) | > 88.7 µM | > 100 µM | > 100 µM | > 100 µM | > 78.7 µM | > 100 µM | 9.34 µM | > 100 µM | > 87.4 µM | > 100 µM | 34.2 µM | 97 µM | > 100 µM | > 100 µM | > 100 µM | > 100 µM
N=C1/C(=C2\Nc3ccccc3S2)CC(=O)N1c1ccc(SC(F)F)cc1 | 4.38 µM | > 100 µM | 27.3 µM | > 100 µM | 0.17 µM | 1.15 µM | 0.347 µM | > 100 µM | 24.5 µM | > 100 µM | 60.9 µM | > 100 µM | 77.1 µM | > 100 µM | > 100 µM | > 100 µM
COc1ccc(-c2nc3sccn3c2-c2ccnc(NCCCNS(=O)(=O)c3ccc(F)cc3)n2)cc1 | 2.29 µM | 6.86 µM | 2.32 µM | 6.75 µM | 2.25 µM | 6.04 µM | 2.4 µM | 10.6 µM | 3.12 µM | > 100 µM | 1.59 µM | 5.28 µM | 3.02 µM | > 100 µM | 2.74 µM | > 100 µM
COc1cc(-c2nn(-c3cccc(NC(=O)CCN4CCN(C)CC4)c3)cc2-c2ccncc2)ccc1Cl | 1.48 µM | 2.99 µM | 0.889 µM | 2.55 µM | 0.591 µM | 2.92 µM | 1.08 µM | 4.11 µM | 2.13 µM | 12.6 µM | 3.67 µM | 22.3 µM | 0.997 µM | 6.24 µM | 2.05 µM | 8.45 µM
Cc1cc2c(cc1Cl)SC(C(=O)c1ccc(Cl)c(Cl)c1)NS2(=O)=O (configuration not stated) | 30.4 µM | 88.9 µM | 40.2 µM | > 100 µM | 31.3 µM | 81.1 µM | 28.7 µM | 76.1 µM | 37.5 µM | > 100 µM | 49.9 µM | > 100 µM | 32.8 µM | 87.6 µM | 32 µM | 86.4 µM
COc1c2ccccc2c(O)c2c(=O)ccn(C)c12 | 21.2 µM | > 80.1 µM | 22.6 µM | > 100 µM | 12.9 µM | > 53.9 µM | 3.72 µM | 19.6 µM | 17.9 µM | 79.2 µM | 7.49 µM | > 49.9 µM | 7.67 µM | > 100 µM | 6.79 µM | 22.1 µM
CN1CCN(c2ccc(Nc3ncc4cc5n(c4n3)C3(CCCCC3)CNC5=O)nc2)CC1 | 3.01 µM | 26 µM | 4.49 µM | 21.8 µM | 1.41 µM | 4.54 µM | 2.16 µM | 13.2 µM | 2.14 µM | 14.1 µM | 1.27 µM | 11.3 µM | 3.43 µM | 17.2 µM | 1.5 µM | 12.2 µM
C[C@H](c1ccccc1)N(CCC(=O)O)C(=O)CCN(C(=O)CCN(C(=O)CCN[C@H](C)c1ccccc1)[C@H](C)c1ccccc1)[C@H](C)c1ccccc1 | > 100 µM | > 100 µM | > 100 µM | > 100 µM | 66.4 µM | > 100 µM | > 100 µM | > 100 µM | > 100 µM | > 100 µM | > 100 µM | > 100 µM | > 100 µM | > 100 µM | > 100 µM | > 100 µM
N=C1C(c2nc3ccccc3s2)=C(O)CN1c1cc(Cl)cc(Cl)c1 | > 100 µM | > 100 µM | > 100 µM | > 100 µM | 18.7 µM | 77.4 µM | 0.705 µM | > 100 µM | > 100 µM | > 100 µM | > 100 µM | > 100 µM | > 100 µM | > 100 µM | > 100 µM | > 100 µM
